# Where two headings read alike, the source gives them in different places.
# Columns and labels:
# [1] = target: T1, HIV-1 protease (Human immunodeficiency virus type 1 group M subtype B, UniProt P04585); test: biochemical; settings: read-out: Protease % Inhib
# Procedure, shortened: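 A substrate biotinylated at the N-terminal arginine and FITC-labelled at the C-terminal lysine was incubated with HIV-1 protease (10 μl of 0.1 μM) and compound for 1 h in the dark at room temperature. Buffer was 0.1 M sodium acetate pH 5.5, 1.0 M NaCl, 0.05% NP-40. Labelled product was separated from substrate using streptavidin beads and filtration, and the fluorescence gave percent inhibition.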
# [2] = target: T1, HIV-1 protease; test: biochemical
# Procedure, shortened: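 Biotinylated, FITC-labelled peptide substrate cleaved in 0.1 M sodium acetate pH 5.5, 1.0 M NaCl, 0.05% NP-40, room temperature. Filtered labelled product read by fluorescence; nonlinear least-squares fit.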
# [3] = Table I, read-out: HIV Protease FITC Assay Ki
SMILES,"inhibition at 0.123 µM ([1]; Table I, Dose 0.123 μM) [%]","inhibition at 0.37 µM ([1]; Table I, Dose 0.370 μM) [%]","inhibition at 1.1 µM ([1]; Table I, Dose 1.100 μM) [%]","inhibition at 3.3 µM ([1]; Table I, Dose 3.300 μM) [%]","inhibition at 10 µM ([1]; Table I, Dose 10.000 μM) [%]","inhibition at 30 µM ([1]; Table I, Dose 30.000 μM) [%]","Ki [2, 3] [nM]",Ki ([2]; read-out: HIV Protease FITC Assay Ki) [nM],inhibition at 0.123 µM [1] [%],inhibition at 0.37 µM [1] [%],inhibition at 1.1 µM [1] [%],inhibition at 3.3 µM [1] [%],inhibition at 10 µM [1] [%],inhibition at 30 µM [1] [%],Ki ([2]; HIV Protease FITC Assay Ki) [nM]
"CCC(CC1CCCOC1)c1cc(O)c(C(c2cccc(NS(=O)(=O)c3cccc4cccnc34)c2)C2CC2)c(=O)o1 (stereo not drawn) [Example 145A, N-(3-[Cyclopropyl[4-hydroxy-2-oxo-6-[1-[(tetrahydro-2H-pyran-3-yl)methyl]propyl]-2H-pyran-3-yl]methyl]phenyl]-8-quinolinesulfonamide]",109,111,119,115,113,114,1.1,–,–,–,–,–,–,–,–
"CCC(CC1CCCOC1)c1cc(O)c(C(c2cccc(NS(=O)(=O)c3cn(C)cn3)c2)C2CC2)c(=O)o1 (stereo not drawn) [Example 145B, N-(3-[Cyclopropyl[4-hydroxy-2-oxo-6-[1-[(tetrahydro-2H-pyran-3-yl)methyl]propyl]-2H-pyran-3-yl]methyl]phenyl]-1-methyl-1H-imidazole-4-sulfonamide]",81.8,88.4,96.5,87.8,102,84.5,1.24,–,–,–,–,–,–,–,–
"CC[C@H](Cc1ccccc1)c1cc(O)c(C(c2cccc(NS(=O)(=O)c3nc4ccccc4[nH]3)c2)C2CC2)c(=O)o1 (stereo partly drawn) [Example 146, N-(3-{Cyclopropyl-[6-(1-(R)-ethylphenethyl)-4-hydroxy-2-oxo-2H-pyran-3-yl]-methyl}-phenyl)-benzimidazole-2-sulfonamide]",68.1,87.4,103,103,103,102,0.69,–,–,–,–,–,–,–,–
"CC[C@H](Cc1ccccc1)c1cc(O)c(C(c2cccc(NS(=O)(=O)c3ncc[nH]3)c2)C2CC2)c(=O)o1 (stereo partly drawn) [Example 147, N-(3-{Cyclopropyl-[6-(1-(R)-ethylphenethyl)-4-hydroxy-2-oxo-2H-pyran-3-yl]-methyl}-phenyl)-1H-imidazole-2-sulfonamide]",77.5,103,112,110,114,108,–,1,–,–,–,–,–,–,–
"CCC(Cc1ccccc1)c1cc(O)c(C(c2cccc(NS(=O)(=O)c3ccc([N+](=O)[O-])cc3)c2)C2CC2)c(=O)o1 (stereo not drawn) [Example 150, N-(3-{Cyclopropyl-[6-(1-ethylphenethyl)-4-hydroxy-2-oxo-2H-pyran-3-yl]-methyl}-phenyl)-4-nitrobenzenesulfonamide]",78.4,96.5,100,103,107,109,5.9,–,–,–,–,–,–,–,–
"COCCOCCOCCOc1ccc2c(O)c(C(c3cccc(NS(=O)(=O)c4cn(C)cn4)c3)C3CC3)c(=O)oc2c1 (stereo not drawn) [Example 151, N-(3-{Cyclopropyl-[7-(2-(2-(2-methoxyethoxy)-ethoxy)ethoxy)-4-hydroxycoumarin-3-yl]-methyl}-phenyl)-1-methyl-1H-imidazole-4-sulfonamide]",–,–,–,–,–,–,–,–,111,115,118,119,116,115,0.36
"COc1ccc2c(O)c(C(c3cccc(NS(=O)(=O)c4cn(C)cn4)c3)C3CC3)c(=O)oc2c1 (stereo not drawn) [Example 152, N-(3-{Cyclopropyl-[7-methoxy-4-hydroxycoumarin-3-yl]-methyl}-phenyl)-1-methyl-1H-imidazole-4-sulfonamide]",–,–,–,–,–,–,–,–,11.5,80.2,95.8,94.4,95.5,96.5,0.71
"COCCOCCOCCOc1ccc2c(O)c(C(c3cccc(NS(=O)(=O)c4cccc5cccnc45)c3)C3CC3)c(=O)oc2c1 (stereo not drawn) [Example 153, N-(3-{Cyclopropyl-[7-(2-(2-(2-methoxyethoxy)-ethoxy)ethoxy)-4-hydroxycoumarin-3-yl]-methyl}-phenyl)-8-quinolinesulfonamide]",81.3,91.1,100,104,103,101,1.85,–,–,–,–,–,–,–,–
"COCCOCCOCCOc1ccc2c(O)c(C(c3cccc(NS(=O)(=O)c4ccccn4)c3)C3CC3)c(=O)oc2c1 (stereo not drawn) [Example 154, N-(3-{Cyclopropyl-[7-(2-(2-(2-methoxyethoxy)-ethoxy)ethoxy)-4-hydroxycoumarin-3-yl]-methyl}-phenyl)-2-pyridinesulfonamide]",–,–,–,–,–,–,–,–,99.8,98.2,99.5,97.6,104,99.2,0.22
